Legend:
Human VPS34 = Human VPS34 (Homo sapiens (Human), UniProt Q8NEB9); assay: Human VPS34 enzyme assay (Adapta TR-FRET); type: biochemical; details: compound concentration 1.11 μM; for inhibition at 1.11 µM: read-out: Percent Inhibition
PC9 cell line = assay: Cellular assay for anti-proliferative activity in combination with a second therapeutic agent (Cell Titer Glo), PC9; type: cell-based, human; details: in combination with AZD9291, call from Combination Index
Experimental: Cells were plated in […] of media in 384 well plates at 1,000 cells per well (A431, PC9, and NCI-H1650 cell lines), 1,500 cells per well (NCI-H1975) or 2,000 cells per well ([…]). The plates were incubated for 24 hrs at 37° C., 6% CO2. The test compounds (see Table 38 below) were diluted serially, and 62.5 nL of each compound solution (or DMSO, if it is a single agent experiment) is added so the total added to the cells is 125 nL. Cell plates were incubated for 72 hrs at 37° C., 6% CO2. Cell Titer Glo reagent (Promega) was added. The plates were then incubated for 10 minutes at room temperature before luminescence was read on a plate reader such as the Pherastar Plus, Pherastar FS, or LEADSeeker imaging system.
Bliss antagonism was defined similarly.
Bliss dependence was defined as the percent cell survival at a certain dose combination divided by the percent cell survival predicted by Bliss independence. More specifically, the Bliss dependence is vAB/(vA*vB), where vAB is the viability with drug A and drug B added, while vA and vB are the viabilities with each drug alone. […]
Another way to evaluate additivity is through consideration of Loewe additivity. […] For Bliss independence, the boundary between additivity and synergy must be measured. […]
Synergy can also be measured by nonlinear blending synergy. […]

Human VPS34, sequence (Q8NEB9 whole entry): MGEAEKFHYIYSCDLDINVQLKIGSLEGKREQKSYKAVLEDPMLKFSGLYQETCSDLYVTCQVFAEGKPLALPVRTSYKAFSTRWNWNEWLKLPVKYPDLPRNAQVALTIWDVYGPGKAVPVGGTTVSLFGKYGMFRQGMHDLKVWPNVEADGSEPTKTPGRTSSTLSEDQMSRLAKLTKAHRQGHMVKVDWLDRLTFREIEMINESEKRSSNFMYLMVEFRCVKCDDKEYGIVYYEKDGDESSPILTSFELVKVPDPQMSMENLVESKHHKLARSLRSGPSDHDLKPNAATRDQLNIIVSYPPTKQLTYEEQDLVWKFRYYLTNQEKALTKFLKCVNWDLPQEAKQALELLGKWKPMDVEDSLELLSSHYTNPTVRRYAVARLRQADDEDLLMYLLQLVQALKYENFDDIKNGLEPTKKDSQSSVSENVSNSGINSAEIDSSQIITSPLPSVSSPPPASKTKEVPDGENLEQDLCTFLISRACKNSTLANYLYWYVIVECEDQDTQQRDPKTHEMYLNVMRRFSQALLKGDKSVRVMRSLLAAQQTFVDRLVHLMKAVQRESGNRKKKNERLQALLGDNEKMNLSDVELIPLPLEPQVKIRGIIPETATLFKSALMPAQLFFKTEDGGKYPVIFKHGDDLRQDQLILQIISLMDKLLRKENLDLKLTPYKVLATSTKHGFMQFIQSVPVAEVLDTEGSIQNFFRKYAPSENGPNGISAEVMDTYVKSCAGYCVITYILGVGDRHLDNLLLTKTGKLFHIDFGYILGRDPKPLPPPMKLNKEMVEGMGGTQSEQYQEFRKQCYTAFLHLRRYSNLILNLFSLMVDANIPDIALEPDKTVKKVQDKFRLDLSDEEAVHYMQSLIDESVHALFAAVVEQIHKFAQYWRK

inhibition at 1.11 µM (Human VPS34)	Percent Inhibition (Human VPS34)	SMILES	Meaning (PC9 cell line)
> 99%		Cc1c(-c2ccnc(NC(=O)C3CC3)c2)cnc(Cl)c1NS(=O)(=O)c1ccc(F)cc1F [Compound I-308, N-(6-chloro-5-{[(2,4-difluorophenyl)sulfonyl]amino}-4-methyl-3,4′-bipyridin-2′-yl)cyclopropane carboxamide]	SubAdditivity
93%		CC(=O)Nc1cc(-c2cnc(Cl)c(NS(=O)(=O)N3CC4CCC3C4)c2C)ccn1 (centres unmarked) [Compound I-477, N-{5-[(2-azabicyclo[2.2.1]hept-2-ylsulfonyl)amino]-6-chloro-4-methyl-3,4′-bipyridin-2′-yl}acetamide]	
84%		CC(=O)Nc1cc(-c2cnc(C)c(OS(=O)(=O)c3ccc(F)cc3F)c2)ccn1 [Compound I-478, 2′-acetamido-6-methyl-3,4′-bipyridin-5-yl 2,4-difluorobenzenesulfonate]	
98%		CCOc1cc(-c2ccnc(Nc3ccnc(C)n3)c2)cnc1C [Compound I-479, 5-ethoxy-6-methyl-N-(2-methylpyrimidin-4-yl)-3,4′-bipyridin-2′-amine]	
99%		Cc1nccc(Nc2cc(-c3cc(N)c4ccnn4c3)ccn2)n1 [Compound I-480, 6-{2-[(2-methylpyrimidin-4-yl)amino]pyridin-4-yl}pyrazolo[1,5-a]pyridin-4-amine]	
> 99%		CC(=O)Nc1cc(-c2cncc(S(=O)(=O)N3CCN(C)CC3)c2)ccn1 [Compound I-481, N-{5-[(4-methylpiperazin-1-yl)sulfonyl]-3,4′-bipyridin-2′-yl}acetamide]	
> 99%		Cc1nccc(Nc2cc(-c3cnc(C)c(NC(=O)N4CC(F)(F)C4)c3)ccn2)n1 [Compound I-482, 3,3-difluoro-N-{6-methyl-2′-[(2-methylpyrimidin-4-yl)amino]-3,4′-bipyridin-5-yl}azetidine-1-carboxamide]	
> 99%		CC(=O)Nc1cc(-c2cnc(C)c(NS(=O)(=O)N3CCC(C)(C)CC3)c2)ccn1 [Compound I-483, N-(5-{[(4,4-dimethylpiperidin-1-yl)sulfonyl]amino}-6-methyl-3,4′-bipyridin-2′-yl)acetamide]	
92%		CC(=O)Nc1cc(-c2cnc3c(c2)S(=O)(=O)NCCO3)ccn1 [Compound I-484, N-(4-(1,1-dioxido-3,4-dihydro-2H-pyrido[2,3-b][1,4,5]oxathiazepin-8-yl)pyridin-2-yl)acetamide]	
100%		CC(=O)Nc1cc(-c2cnc(C)c(C(=O)N(C)c3ccc(F)cc3F)c2)ccn1 [Compound I-485, 2′-acetamido-N-(2,4-difluorophenyl)-N,6-dimethyl-3,4′-bipyridine-5-carboxamide]	
84%		Cc1nccc(Nc2cc(-c3cc(NS(=O)(=O)c4ccc(F)cc4F)c4ccnn4c3)ccn2)n1 [Compound I-486, 2,4-difluoro-N-(6-{2-[(2-methylpyrimidin-4-yl)amino]pyridin-4-yl}pyrazolo[1,5-a]pyridin-4-yl)benzenesulfonamide]	
71%		CC(=O)Nc1cc(-c2cnc(N(C)C)c(S(=O)(=O)NC(C)(C)C)c2C)ccn1 [Compound I-487, N-[5-(tert-butylsulfamoyl)-6-(dimethylamino)-4-methyl-3,4′-bipyridin-2′-yl]acetamide]	
> 99%		CC(=O)Nc1cc(-c2cnc(Cl)c(NS(=O)(=O)N3CCCC3)c2C)ccn1 [Compound I-488, N-{6-chloro-4-methyl-5-[(pyrrolidin-1-ylsulfonyl)amino]-3,4′-bipyridin-2′-yl}acetamide]	
> 99%		CC(=O)Nc1cc(-c2cnc(N)c(N3CCCNS3(=O)=O)c2)ccn1 [Compound I-490, N-[6-amino-5-(1,1-dioxido-1,2,6-thiadiazinan-2-yl)-3,4′-bipyridin-2′-yl]acetamide]	
98%		CC(=O)Nc1cc(-c2cnc(N(C)C)c(S(=O)(=O)Nc3ccc(F)cc3F)c2)ccn1 [Compound I-491, N-{5-[(2,4-difluorophenyl)sulfamoyl]-6-(dimethylamino)-3,4′-bipyridin-2′-yl}acetamide]	
86%		CC(=O)Nc1cc(-c2cnc(C)c(OCC3CC3)c2)ccn1 [Compound I-492, N-[5-(cyclopropylmethoxy)-6-methyl-3,4′-bipyridin-2′-yl]acetamide]	
	99%	CC(=O)Nc1cc(-c2cnc(Cl)c(NS(=O)(=O)c3cn(C)nc3C(F)(F)F)c2C)ccn1 [Compound I-493, N-[6-chloro-4-methyl-5-({[1-methyl-3-(trifluoromethyl)-1H-pyrazol-4-yl]sulfonyl}amino)-3,4′-bipyridin-2′-yl]acetamide]	
91%		CC(=O)Nc1cc(-c2cnc(C)c(NS(=O)(=O)N(C)c3ccccc3)c2)ccn1 [Compound I-494, N-(6-methyl-5-{[methyl(phenyl)sulfamoyl]amino}-3,4′-bipyridin-2′-yl)acetamide]	
83%		Cc1nccc(Nc2cc(-c3cnc(C)c(C(=O)N4CC(C)(C)C4)c3)ccn2)n1 [Compound I-495, (3,3-dimethylazetidin-1-yl){6-methyl-2′-[(2-methylpyrimidin-4-yl)amino]-3,4′-bipyridin-5-yl}methanone]	
